In US12465588B2, “Indole carboxamide derivative and pharmaceutical composition containing same” (KUKJE PHARMA CO., LTD., priority 2019, dated 2025):

Test system: A549 human lung cancer cells
Experiment: Measurement of PGE2 in IL-1β-treated A549 human lung cancer cells
Type: cell-based
Settings: PGE2 production, A549 cell, IL-1β 1 ng/mL, 48 hours
Procedure: Samples at various concentrations were added at 24 hours after A549 human lung cancer cells were seeded. After 1 hour, IL-1β of 1 ng/mL was added. The cells were cultured for 48 hours and then the culture supernatant was collected. PGE2 of the collected supernatant was measured according to the manufacturer's instructions using a PGE2 EIA kit.

IC50	SMILES
14.8 nM	CC(C)C(=O)NCc1ccc(Cl)c(C(=O)Nc2ccc3c(c2)cc(C(=O)NCc2ccccc2C(F)(F)F)n3CC(F)(F)F)c1 [Compound 63, 5-(2-chloro-5-(isobutyramidomethyl)benzamido)-1-(2,2,2-trifluoroethyl)-N-(2-(trifluoromethyl)benzyl)-1H-indole-2-carboxamide]
9.38 nM	CC(C)C(=O)NCc1ccc(Cl)c(C(=O)Nc2ccc3c(c2)cc(C(=O)NCc2ccc(OC(F)(F)F)cc2)n3CC(F)(F)F)c1 [Compound 72, 5-(2-chloro-5-(isobutyramidomethyl)benzamido)-1-(2,2,2-trifluoroethyl)-N-(4-(trifluoromethoxy)Benzyl)-1H-indole-2-carboxamide]
237 nM	CC(C)C(=O)NCc1ccc(Cl)c(C(=O)Nc2ccc3c(c2)cc(C(=O)Nc2ccc(F)cc2)n3C)c1 [Compound 2, 5-(2-chloro-5-(isobutyramidomethyl)benzamido)-N-(4-fluorophenyl)-1-methyl-1H-indole-2-carboxamide]
27.4 nM	Cc1cc(Cl)ccc1NC(=O)c1cc2cc(NC(=O)c3cc(CNC(=O)C(C)C)ccc3Cl)ccc2n1C [Compound 22, N-(4-chloro-2-methylphenyl)-5-(2-chloro-5-(isobutyramidomethyl)benzamido)-1-methyl-1H-indole-2-carboxamide]
47 nM	CC(C)C(=O)NCc1ccc(Cl)c(C(=O)Nc2ccc3c(c2)cc(C(=O)NCc2cc(F)cc(C(F)(F)F)c2)n3CC(F)(F)F)c1 [Compound 69, 5-(2-chloro-5-(isobutyramidomethyl)benzamido)-N-(3-fluoro-5-(trifluoromethyl)benzyl)-1-(2,2,2-trifluoroethyl)-1H-indole-2-carboxamide]
26.4 nM	CC(C)C(=O)NCc1ccc(Cl)c(C(=O)Nc2ccc3c(c2)cc(C(=O)Nc2ccc(Br)cc2)n3C)c1 [Compound 13, N-(4-bromophenyl)-5-(2-chloro-5-(isobutyramidomethyl)benzamido)-1-methyl-1H-indole-2-carboxamide]
1.8 nM	CC(C)C(=O)NCc1ccc(Cl)c(C(=O)Nc2ccc3c(c2)cc(C(=O)N[C@@H](C)c2ccc(Br)cc2)n3CC(F)(F)F)c1 [Compound 67, (S)—N-(1-(4-bromophenyl)ethyl)-5-(2-chloro-5-(isobutyramidomethyl)benzamido)-1-(2,2,2-trifluoroethyl)-1H-indole-2-carboxamide]
9.65 nM	CC(C)C(=O)NCc1ccc(Cl)c(C(=O)Nc2ccc3c(c2)cc(C(=O)NCc2cccc(C(F)(F)F)c2)n3CC(F)(F)F)c1 [Compound 70, 5-(2-chloro-5-(isobutyramidomethyl)benzamido)-1-(2,2,2-trifluoroethyl)-N-(3-(trifluoromethyl)benzyl)-1H-indole-2-carboxamide]
> 100 nM	CC(C)C(=O)NCc1ccc(Cl)c(C(=O)Nc2ccc3c(c2)cc(C(=O)Nc2cc(-c4ccc(C(F)(F)F)cc4)n[nH]2)n3C)c1 [Compound 19, 5-(2-chloro-5-(isobutyramidomethyl)benzamido)-1-methyl-N-(3-(4-(trifluoromethyl)phenyl)-1H-pyrazole-5-yl)-1H-indole-2-carboxamide]
27.5 nM	CC(C)C(=O)NCc1ccc(Cl)c(C(=O)Nc2ccc3c(c2)cc(C(=O)NCc2ccc(C(C)(C)C)cc2)n3CC(F)(F)F)c1 [Compound 62, N-(4-(tert-butyl)benzyl)-5-(2-chloro-5-(isobutyramidomethyl)benzamido)-1-(2,2,2-trifluoroethyl)-1H-indole-2-carboxamide]
5.54 nM	CC(C)C(=O)NCc1ccc(Cl)c(C(=O)Nc2ccc3c(c2)cc(C(=O)N[C@H](C)c2ccc(C(F)(F)F)cc2)n3C)c1 [Compound 58, (R)-5-(2-chloro-5-(isobutyramidomethyl)benzamido)-1-methyl-N-(1-(4-(trifluoromethyl)phenyl)ethyl)-1H-indole-2-carboxamide]
5.82 nM	CC(C)C(=O)NCc1ccc(Cl)c(C(=O)Nc2ccc3c(c2)cc(C(=O)NC(C)c2ccc(C(F)(F)F)cc2)n3C)c1 (stereo not drawn) [Compound 47, 5-(2-chloro-5-(isobutyramidomethyl)benzamido)-1-methyl-N-(1-(4-(trifluoromethyl)phenyl)ethyl)-1H-indole-2-carboxamide]
51.6 nM	CC(C)C(=O)NCc1ccc(Cl)c(C(=O)Nc2ccc3c(c2)cc(C(=O)N[C@@H](C)c2ccc(OC(F)(F)F)cc2)n3C)c1 [Compound 61, (S)-5-(2-chloro-5-(isobutyramidomethyl)benzamido)-1-methyl-N-(1-(4-(trifluoromethoxy)phenyl)ethyl)-1H-indole-2-carboxamide]
5.87 nM	CC(C)C(=O)NCc1ccc(Cl)c(C(=O)Nc2ccc3[nH]c(C(=O)Nc4ccc(OC(F)(F)F)cc4)cc3c2)c1 [Compound 74, 5-(2-chloro-5-(isobutyramidomethyl)benzamido)-N-(4-(trifluoromethoxy)phenyl)-1H-indole-2-carboxamide]
9.59 nM	CC(C)C(=O)NCc1ccc(Cl)c(C(=O)Nc2ccc3c(c2)cc(C(=O)NCc2ccc(C(C)(C)C)cc2)n3C)c1 [Compound 33, N-(4-(tert-butyl)benzyl)-5-(2-chloro-5-(isobutyramidomethyl)benzamido)-1-methyl-1H-indole-2-carboxamide]
43.3 nM	CC(C)C(=O)NCc1ccc(Cl)c(C(=O)Nc2ccc3c(c2)cc(C(=O)N[C@@H](C)c2ccc([N+](=O)[O-])cc2)n3CC(F)(F)F)c1 [Compound 66, (S)-5-(2-chloro-5-(isobutyramidomethyl)benzamido)-N-(1-(4-nitrophenyl)ethyl)-1-(2,2,2-trifluoroethyl)-1H-indole-2-carboxamide]
9.5 nM	CC(C)C(=O)NCc1ccc(Cl)c(C(=O)Nc2ccc3c(c2)cc(C(=O)N[C@H](C)c2ccc(OC(F)(F)F)cc2)n3C)c1 [Compound 59, (R)-5-(2-chloro-5-(isobutyramidomethyl)benzamido)-1-methyl-N-(1-(4-(trifluoromethoxy)phenyl)ethyl)-1H-indole-2-carboxamide]
88.1 nM	CC(C)C(=O)NCc1ccc(Cl)c(C(=O)Nc2ccc3c(c2)cc(C(=O)Nc2cc(F)cc(C(F)(F)F)c2)n3C)c1 [Compound 17, 5-(2-chloro-5-(isobutyramidomethyl)benzamido)-N-(3-fluoro-5-(trifluoromethyl)phenyl)-1-methyl-1H-indole-2-carboxamide]
9.75 nM	CC(C)C(=O)NCc1ccc(Cl)c(C(=O)Nc2ccc3c(c2)cc(C(=O)NCc2ccc(Cl)cc2)n3C)c1 [Compound 49, 5-(2-chloro-5-(isobutyramidomethyl)benzamido)-N-(4-chlorobenzyl)-1-methyl-1H-indole-2-carboxamide]
10.4 nM	CC(C)C(=O)NCc1ccc(Cl)c(C(=O)Nc2ccc3c(c2)cc(C(=O)NCc2ccccc2C(F)(F)F)n3C)c1 [Compound 35, 5-(2-chloro-5-(isobutyramidomethyl)benzamido)-1-methyl-N-(2-(trifluoromethyl)benzyl)-1H-indole-2-carboxamide]
> 100 nM	CC(C)C(=O)NCc1ccc(Cl)c(C(=O)Nc2ccc3c(c2)cc(C(=O)N2CCN(c4ncccn4)CC2)n3C)c1 [Compound 21, 2-chloro-5-(isobutyramidomethyl)-N-(1-methyl-2-(4-(pyrimidin-2-yl)piperazin-1-carbonyl)-1H-indole-5-yl)benzamide]
